Values belong to the compound of their own block, whether it stands above or below them.
System: LG0567-F671-PDC complex spheroids viability
Assay: Anticancer human tumor LG0567-F671-PDC patient-derived lung adenocarcinoma cell line growth inhibition [RAS]
Settings: for IC50: curve of first compound; for viability, T/C: stronger effect = lower value
Outline: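 Agents were tested in combination matrices in half-log decrements from a top concentration at or near clinical Cmax (10 microM if undetermined). Targets were multi-cell spheroids of tumour lines plus HUVEC and MSC stromal cells.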
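Also: spheroids exposed to compound for seven days before readout.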
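For IC50 in this document: luminescence signal used as a proxy for viable cells.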

IC50 (second compound 0.000949 µM): < 3.16 nM | IC50 (second compound 0.003 µM): < 3.16 nM | IC50 (second compound 0.00949 µM): < 3.16 nM | IC50 (second compound 0.03 µM): < 3.16 nM | IC50 (second compound 0.0949 µM): < 3.16 nM | IC50 (second compound 0.3 µM): < 3.16 nM
SMILES: O=C(c1ccc(F)c(F)c1Nc1ccc(I)cc1F)N1CC(O)([C@@H]2CCCCN2)C1 + CCn1c(-c2cc(N3CCN(C)CC3)cnc2C(C)OC)c2c3cc(ccc31)-c1csc(n1)CC(NC(=O)C1CC1C)C(=O)N1CCCC(N1)C(=O)OCC(C)(C)C2
viability, T/C (second compound 0.000949 µM, first compound 0.00316 µM): 21.6% | viability, T/C (second compound 0.000949 µM, first compound 0.01 µM): 13.6% | viability, T/C (second compound 0.000949 µM, first compound 0.0316 µM): 8.81% | viability, T/C (second compound 0.000949 µM, first compound 0.1 µM): 6.2% | viability, T/C (second compound 0.000949 µM, first compound 0.316 µM): 1.53% | viability, T/C (second compound 0.000949 µM, first compound 1 µM): 0.54% | viability, T/C (second compound 0.003 µM, first compound 0.00316 µM): 8.59% | viability, T/C (second compound 0.003 µM, first compound 0.01 µM): 6.83% | viability, T/C (second compound 0.003 µM, first compound 0.0316 µM): 4.65% | viability, T/C (second compound 0.003 µM, first compound 0.1 µM): 2.36% | viability, T/C (second compound 0.003 µM, first compound 0.316 µM): 1.05% | viability, T/C (second compound 0.003 µM, first compound 1 µM): 0.48% | viability, T/C (second compound 0.00949 µM, first compound 0.00316 µM): 5.45% | viability, T/C (second compound 0.00949 µM, first compound 0.01 µM): 3.36% | viability, T/C (second compound 0.00949 µM, first compound 0.0316 µM): 2.12% | viability, T/C (second compound 0.00949 µM, first compound 0.1 µM): 0.98% | viability, T/C (second compound 0.00949 µM, first compound 0.316 µM): 0.46% | viability, T/C (second compound 0.00949 µM, first compound 1 µM): 0.34% | viability, T/C (second compound 0.03 µM, first compound 0.00316 µM): 3.69% | viability, T/C (second compound 0.03 µM, first compound 0.01 µM): 1.98% | viability, T/C (second compound 0.03 µM, first compound 0.0316 µM): 1.07% | viability, T/C (second compound 0.03 µM, first compound 0.1 µM): 0.6% | viability, T/C (second compound 0.03 µM, first compound 0.316 µM): 0.54% | viability, T/C (second compound 0.03 µM, first compound 1 µM): 0.95% | viability, T/C (second compound 0.0949 µM, first compound 0.00316 µM): 1.82% | viability, T/C (second compound 0.0949 µM, first compound 0.01 µM): 1.19% | viability, T/C (second compound 0.0949 µM, first compound 0.0316 µM): 0.64% | viability, T/C (second compound 0.0949 µM, first compound 0.1 µM): 0.56% | viability, T/C (second compound 0.0949 µM, first compound 0.316 µM): 0.47% | viability, T/C (second compound 0.0949 µM, first compound 1 µM): 0.32% | viability, T/C (second compound 0.3 µM, first compound 0.00316 µM): 1.58% | viability, T/C (second compound 0.3 µM, first compound 0.01 µM): 1.13% | viability, T/C (second compound 0.3 µM, first compound 0.0316 µM): 0.59% | viability, T/C (second compound 0.3 µM, first compound 0.1 µM): 0.43% | viability, T/C (second compound 0.3 µM, first compound 0.316 µM): 0.53% | viability, T/C (second compound 0.3 µM, first compound 1 µM): 0.43%

IC50 (second compound 0.0316 µM): < 3.16 nM | IC50 (second compound 0.1 µM): < 3.16 nM | IC50 (second compound 0.316 µM): < 3.16 nM | IC50 (second compound 1 µM): < 3.16 nM | IC50 (second compound 3.16 µM): < 3.16 nM | IC50 (second compound 10 µM): < 3.16 nM
SMILES: C=CC(=O)N1CCN(c2nc(OCC3CCCN3C)nc3c(F)c(-c4nc(N)cc(C)c4C(F)(F)F)c(Cl)cc23)C(C)C1 (stereo unspecified) + C#Cc1c(F)ccc2cc(O)cc(-c3ncc4c(N5CC6CCC(C5)N6)nc(OCC56CCCN5CC(F)C6)nc4c3F)c12
viability, T/C (second compound 0.0316 µM, first compound 0.00316 µM): 17.4% | viability, T/C (second compound 0.0316 µM, first compound 0.01 µM): 12.2% | viability, T/C (second compound 0.0316 µM, first compound 0.0316 µM): 11.1% | viability, T/C (second compound 0.0316 µM, first compound 0.1 µM): 12.7% | viability, T/C (second compound 0.0316 µM, first compound 0.316 µM): 12.4% | viability, T/C (second compound 0.0316 µM, first compound 1 µM): 11.7% | viability, T/C (second compound 0.1 µM, first compound 0.00316 µM): 14% | viability, T/C (second compound 0.1 µM, first compound 0.01 µM): 12% | viability, T/C (second compound 0.1 µM, first compound 0.0316 µM): 9.61% | viability, T/C (second compound 0.1 µM, first compound 0.1 µM): 11.5% | viability, T/C (second compound 0.1 µM, first compound 0.316 µM): 11% | viability, T/C (second compound 0.1 µM, first compound 1 µM): 10.9% | viability, T/C (second compound 0.316 µM, first compound 0.00316 µM): 16.3% | viability, T/C (second compound 0.316 µM, first compound 0.01 µM): 15.7% | viability, T/C (second compound 0.316 µM, first compound 0.0316 µM): 11.2% | viability, T/C (second compound 0.316 µM, first compound 0.1 µM): 8.83% | viability, T/C (second compound 0.316 µM, first compound 0.316 µM): 13.8% | viability, T/C (second compound 0.316 µM, first compound 1 µM): 9.54% | viability, T/C (second compound 1 µM, first compound 0.00316 µM): 20% | viability, T/C (second compound 1 µM, first compound 0.01 µM): 12.6% | viability, T/C (second compound 1 µM, first compound 0.0316 µM): 10.3% | viability, T/C (second compound 1 µM, first compound 0.1 µM): 8.88% | viability, T/C (second compound 1 µM, first compound 0.316 µM): 9.02% | viability, T/C (second compound 1 µM, first compound 1 µM): 8.65% | viability, T/C (second compound 3.16 µM, first compound 0.00316 µM): 14% | viability, T/C (second compound 3.16 µM, first compound 0.01 µM): 10.2% | viability, T/C (second compound 3.16 µM, first compound 0.0316 µM): 8.81% | viability, T/C (second compound 3.16 µM, first compound 0.1 µM): 7.62% | viability, T/C (second compound 3.16 µM, first compound 0.316 µM): 9.35% | viability, T/C (second compound 3.16 µM, first compound 1 µM): 8.07% | viability, T/C (second compound 10 µM, first compound 0.00316 µM): 10.8% | viability, T/C (second compound 10 µM, first compound 0.01 µM): 8.76% | viability, T/C (second compound 10 µM, first compound 0.0316 µM): 8.93% | viability, T/C (second compound 10 µM, first compound 0.1 µM): 9.51% | viability, T/C (second compound 10 µM, first compound 0.316 µM): 9.18% | viability, T/C (second compound 10 µM, first compound 1 µM): 8.52%

IC50 (second compound 0.0316 µM): 16.1 nM | IC50 (second compound 0.1 µM): 11.7 nM | IC50 (second compound 0.316 µM): 2.33 nM | IC50 (second compound 1 µM): < 0.949 nM | IC50 (second compound 3.16 µM): < 0.949 nM | IC50 (second compound 10 µM): < 0.949 nM
SMILES: CCc1c2c(nc3ccc(O)cc13)-c1cc3c(c(=O)n1C2)COC(=O)[C@]3(O)CC + C#Cc1c(F)ccc2cc(O)cc(-c3ncc4c(N5CC6CCC(C5)N6)nc(OCC56CCCN5CC(F)C6)nc4c3F)c12
viability, T/C (second compound 0.0316 µM, first compound 0.000949 µM): 82.4% | viability, T/C (second compound 0.0316 µM, first compound 0.003 µM): 67.4% | viability, T/C (second compound 0.0316 µM, first compound 0.00949 µM): 56.8% | viability, T/C (second compound 0.0316 µM, first compound 0.03 µM): 44.4% | viability, T/C (second compound 0.0316 µM, first compound 0.0949 µM): 23.6% | viability, T/C (second compound 0.0316 µM, first compound 0.3 µM): 6.15% | viability, T/C (second compound 0.1 µM, first compound 0.000949 µM): 73.3% | viability, T/C (second compound 0.1 µM, first compound 0.003 µM): 61% | viability, T/C (second compound 0.1 µM, first compound 0.00949 µM): 54.8% | viability, T/C (second compound 0.1 µM, first compound 0.03 µM): 38.6% | viability, T/C (second compound 0.1 µM, first compound 0.0949 µM): 22.4% | viability, T/C (second compound 0.1 µM, first compound 0.3 µM): 7.9% | viability, T/C (second compound 0.316 µM, first compound 0.000949 µM): 50.4% | viability, T/C (second compound 0.316 µM, first compound 0.003 µM): 53.3% | viability, T/C (second compound 0.316 µM, first compound 0.00949 µM): 41% | viability, T/C (second compound 0.316 µM, first compound 0.03 µM): 29.8% | viability, T/C (second compound 0.316 µM, first compound 0.0949 µM): 20.3% | viability, T/C (second compound 0.316 µM, first compound 0.3 µM): 7.35% | viability, T/C (second compound 1 µM, first compound 0.000949 µM): 30.5% | viability, T/C (second compound 1 µM, first compound 0.003 µM): 29.1% | viability, T/C (second compound 1 µM, first compound 0.00949 µM): 26.7% | viability, T/C (second compound 1 µM, first compound 0.03 µM): 20.9% | viability, T/C (second compound 1 µM, first compound 0.0949 µM): 13.9% | viability, T/C (second compound 1 µM, first compound 0.3 µM): 6.24% | viability, T/C (second compound 3.16 µM, first compound 0.000949 µM): 20% | viability, T/C (second compound 3.16 µM, first compound 0.003 µM): 15.3% | viability, T/C (second compound 3.16 µM, first compound 0.00949 µM): 15.6% | viability, T/C (second compound 3.16 µM, first compound 0.03 µM): 11.2% | viability, T/C (second compound 3.16 µM, first compound 0.0949 µM): 8.88% | viability, T/C (second compound 3.16 µM, first compound 0.3 µM): 4.31% | viability, T/C (second compound 10 µM, first compound 0.000949 µM): 11% | viability, T/C (second compound 10 µM, first compound 0.003 µM): 10% | viability, T/C (second compound 10 µM, first compound 0.00949 µM): 10.1% | viability, T/C (second compound 10 µM, first compound 0.03 µM): 6.59% | viability, T/C (second compound 10 µM, first compound 0.0949 µM): 4.97% | viability, T/C (second compound 10 µM, first compound 0.3 µM): 3.6%
